From ChEMBL document CHEMBL1147852, “Synthesis and biology of bis-xylosylated dihydroxynaphthalenes” (2007)

Tested on: T-24
Assay: Antiproliferative activity against human T24 cells
Type: functional
Conditions: read-out: ED50 (the source's name)

Compound	EC50
O[C@@H]1[C@@H](O)[C@H](Oc2ccc3cc(O[C@@H]4OC[C@@H](O)[C@H](O)[C@H]4O)ccc3c2)OC[C@H]1O	> 400 µM
O[C@@H]1[C@@H](O)[C@H](Oc2cccc3c(O[C@@H]4OC[C@@H](O)[C@H](O)[C@H]4O)cccc23)OC[C@H]1O	400 µM
O[C@@H]1[C@@H](O)[C@H](Oc2cc(O[C@@H]3OC[C@@H](O)[C@H](O)[C@H]3O)c3ccccc3c2)OC[C@H]1O	> 400 µM
O[C@@H]1[C@@H](O)[C@H](Oc2ccc(O[C@@H]3OC[C@@H](O)[C@H](O)[C@H]3O)c3ccccc23)OC[C@H]1O	400 µM
O[C@@H]1[C@@H](Oc2ccc3ccc(O[C@@H]4OC[C@@H](O)[C@H](O)[C@H]4O)cc3c2)OC[C@H](O)[C@H]1O	450 µM
